{
  "source": "patent US5834431A",
  "about": "“Des-Arg^9 -BK antagonists” (Cortech, Inc., priority 1995, dated 1998)",
  "key": {"[1]": {"target": "T1, BK1 (hypotensive response to desArg9BK) (Canis lupus familiaris, UniProt Q9BDQ5)", "T1 construct": "Mongrel dogs of either sex, weight range 10-15 kg were used; from tissue; host or cells: whole anaesthetized mongrel dog (in vivo blood pressure)", "T1 sequence (Q9BDQ5 1-350)": "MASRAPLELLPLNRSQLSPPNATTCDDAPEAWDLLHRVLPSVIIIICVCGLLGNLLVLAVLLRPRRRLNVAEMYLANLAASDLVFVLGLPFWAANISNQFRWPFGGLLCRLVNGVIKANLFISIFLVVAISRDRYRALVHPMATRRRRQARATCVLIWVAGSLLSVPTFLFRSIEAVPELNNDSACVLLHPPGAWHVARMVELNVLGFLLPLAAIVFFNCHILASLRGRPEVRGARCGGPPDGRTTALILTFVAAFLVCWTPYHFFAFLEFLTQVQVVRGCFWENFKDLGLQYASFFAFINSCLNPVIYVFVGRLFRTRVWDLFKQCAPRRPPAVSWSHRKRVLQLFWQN", "experiment": "In vivo inhibition of hypotensive response to desArg9BK in anaesthetized dogs", "set-up": "species or system Mongrel dogs", "settings": "dog", "method": "Mongrel dogs of either sex, weight range 10-15 kg were used. These were anaesthesized with pentobarbitone, 30 mg/kg i.v. and catheters placed in one femoral artery and both femoral veins for the recording of blood pressure and infusion and injection of compounds. […] After the end of the infusion of the highest dose of the antagonist compound, BK and des-Arg^9 -BK were injected at intervals for up to four hours."}, "[2]": {"experiment": "Stability in rat kidney brush border microvilli", "type": "in vitro ADME", "method": "Kidney membranes were prepared as indicated in the literature (Booth et al., Biochemical Journal, 142: 575 (1974)). Rat kidneys were obtained after sacrifice and rinsed in several volumes of a 2 mM tris, 10 mM mannitol buffer, pH 7.1. Cortical material was carefully removed and homogenized in ten volumes of the buffer. The homogenate was spun in a IEC Centra-8 refrigerated centrifuge. (4° C., 200×g). The supernatant was made 10 mM with respect to MgCl2. The supernatant material was subjected to further centrifugation as indicated: [drawing 2] Pellet resuspended in tris-mannitol buffer. Protein concentration was determined by the method of Bradford (Anal. Biochem., 72:248-254 (1976)). Bradykinin antagonists were prepared at 1 mM concentration in a phosphate-buffered saline solution (phosphate saline, 2.6 mM KH2 PO4, 10.42 mM Na2 HPO4, 0.1454M NaCl, pH. 7.2). Aliquots (10 μl) of the compound were added to 90 μl of the tissue samples in Eppendorf tubes. Samples were incubated various time points at 37° C. At each time point protein was precipitated by addition of acetonitrile, acetonitrile made 0.1M HCl or 10% (v/v) trifluoroacetic acid in water (100 μl). Tubes were spun (14,000 rpm, 10 min) in an Eppendorf Model 5415C microcentrifuge. Samples were filtered and analyzed using reverse-phase HPLC (C18 column 4.6×150 mm) and a 13.5% to 90% acetonitrile gradient in 0.1% TFA. Compound half-life was determined by analysis of raw data using ENZFIT application software (Elsevier)."}, "[3]": {"experiment": "Stability in rat lung membranes", "type": "in vitro ADME", "method": "Rat or human lung (3 gm) was prepared as a modification of […] et al. (Biochemical Pharmacology 33: 3471 (1984)). Tissues were removed and placed in cold phosphate-saline (3×). Material was minced and homogenized in 20 volumes (w/v) of 0.5 mM tris HCl. 50 mM mannitol, pH 7.0. Calcium chloride was added to the homogenate to give a final concentration of 10 mM. The material was filtered through a guaze pad to remove loose connective tissue. Filtrate was spun in a Beckman centrifuge (3,000×g) for thirty minutes. The resultant supernatant fraction was spun in a Beckman L7-65 ultracentrifuge (43,000×g, 30 min) to spin down membranes. The centrifugation step was repeated on the membrane pellet fraction two additional times. The pellet was reconstituted in 4 ml of the tris mannitol buffer and stored at -70° C. Protein was determined by the method of Bradford. Bradykinin antagonists were prepared at 1 mM concentration in a phosphate-buffered saline solution (phosphate saline, 2.6 mM KH2 PO4, 10.42 mM Na2 HPO4, 0.1454M NaCl, pH. 7.2). Aliquots (10 μl) of the compound were added to 90 μl of the tissue samples in Eppendorf tubes. Samples were incubated various time points at 37° C. At each time point protein was precipitated by addition of acetonitrile, acetonitrile made 0.1M HCl or 10% (v/v) trifluoroacetic acid in water (100 μl). Tubes were spun (14,000 rpm, 10 min) in an Eppendorf Model 5415C microcentrifuge. Samples were filtered and analyzed using reverse-phase HPLC (C18 column 4.6×150 mm) and a 13.5% to 90% acetonitrile gradient in 0.1% TFA. Compound half-life was determined by analysis of raw data using ENZFIT application software (Elsevier)."}, "[4]": {"system": "angiogenic response elicited by bradykinin", "settings": "literature, Hu et al. 1993; cited from earlier work"}, "[5]": {"system": "type I diabetic hyperglycemia", "settings": "literature, Zuccollo et al. 1995; cited from earlier work"}, "B1 receptor": {"target": "T2, B1 receptor (Homo sapiens, UniProt P46663)", "T2 construct": "Human lung fibroblasts IMR-90 cells were obtained from ATCC and propagated in DMEM media; host or cells: IMR-90 human lung fibroblasts, treated with interleukin 1b three hours before harvest; membranes", "T2 sequence (P46663 1-353)": "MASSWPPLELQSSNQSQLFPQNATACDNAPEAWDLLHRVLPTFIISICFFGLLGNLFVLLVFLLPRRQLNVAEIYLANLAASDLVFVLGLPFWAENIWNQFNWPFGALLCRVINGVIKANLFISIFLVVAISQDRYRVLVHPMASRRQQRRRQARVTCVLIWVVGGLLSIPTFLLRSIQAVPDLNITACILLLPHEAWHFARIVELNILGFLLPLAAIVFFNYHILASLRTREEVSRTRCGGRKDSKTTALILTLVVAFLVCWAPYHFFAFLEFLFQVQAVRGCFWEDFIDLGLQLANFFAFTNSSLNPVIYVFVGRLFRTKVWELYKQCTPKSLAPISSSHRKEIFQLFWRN", "experiment": "Human B1 binding, IL-1b-treated IMR-90 membranes, 3H-des-Arg9-Kallidin", "settings": "0.5 nM 3H-des-Arg9-Kallidin, pIC50 = -log of molar IC50", "method": "(§1) Human lung fibroblasts IMR-90 cells were obtained from ATCC and propagated in DMEM media in […] roller bottles until confluent. Three hours prior to harvesting, the cells were treated with Interleukin lb (200 pg/ml). Human BK2 clones were propagated in F12 media until confluent. Preparation of membranes for binding assays was carried out by scraping cells from roller bottles in ice cold PBS and centrifuging at 1000 ×g, at 4° C. for 15 minutes. The supernatant was discarded and pellet resuspended in Buffer A consisting of 25 mM TES(pH 6.8) with 2 uM 1,10-Phenanthroline, and centrifuged at 27,000 ×g for 15 min. this was then repeated. The final pellet was resuspended in Buffer B (Buffer A with 2 uM Captopril, 140 ug/Ml Bacitracin, 0.1%BSA), and stored in 1 ml aliquots, frozen at -20° C. until needed.\n(§2) Binding assays were performed by incubating human clone membranes with 0.3 nM ^3 H-Bradykinin or IMR-90 membranes with 0.5 nM ^3 H-des-Arg^9 -Kallidin in the presence of the peptides in assay buffer (Buffer B with 1 mM Dithiotreitol), at room temperature, for 45 minutes. All test compound dilutions were in triplicate. Assays were harvested by quick filtration in a Tomtec Harvester 96, with ice cold wash buffer consisting of 10 mM Tris/HCl, pH 7.5, 100 mM NaCl, 0.02%BSA, onto Wallec printed glassfiber Filtermat \"B\", which had been pre-soaked with 0.1% PEI and previously air-dried."}, "B2 receptor [6]": {"target": "T3, B2 receptor (Homo sapiens, UniProt P30411)", "T3 construct": "expressed in transfected cells", "T3 sequence (P30411 1-391)": "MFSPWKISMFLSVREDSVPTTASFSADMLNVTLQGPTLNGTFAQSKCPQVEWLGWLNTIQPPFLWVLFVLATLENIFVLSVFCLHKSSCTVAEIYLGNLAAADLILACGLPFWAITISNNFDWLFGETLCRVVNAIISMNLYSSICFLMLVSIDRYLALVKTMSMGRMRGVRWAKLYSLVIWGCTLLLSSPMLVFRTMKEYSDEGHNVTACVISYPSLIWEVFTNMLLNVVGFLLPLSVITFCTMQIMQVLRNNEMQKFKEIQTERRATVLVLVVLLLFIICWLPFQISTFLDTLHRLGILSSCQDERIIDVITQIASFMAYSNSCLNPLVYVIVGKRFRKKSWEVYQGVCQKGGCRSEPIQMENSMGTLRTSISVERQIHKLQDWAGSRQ", "experiment": "Human B2 binding, human BK2 clone membranes, 3H-Bradykinin", "settings": "0.3 nM 3H-Bradykinin, i.a. = inactive, read-out: Human Binding - pIC50 B2 (converted)", "method": "as §1\nas §2, with “air-dried. Filtermats were counted in 9.5 mls Wallec Beta-Plate Scint, in Wallec 1450 MicroBeta Counter.” for “air-dried.”"}, "B2 receptor [7]": {"target": "T4, B2 receptor (Cavia porcellus, UniProt O70526)", "T4 construct": "from tissue", "T4 sequence (O70526 1-372)": "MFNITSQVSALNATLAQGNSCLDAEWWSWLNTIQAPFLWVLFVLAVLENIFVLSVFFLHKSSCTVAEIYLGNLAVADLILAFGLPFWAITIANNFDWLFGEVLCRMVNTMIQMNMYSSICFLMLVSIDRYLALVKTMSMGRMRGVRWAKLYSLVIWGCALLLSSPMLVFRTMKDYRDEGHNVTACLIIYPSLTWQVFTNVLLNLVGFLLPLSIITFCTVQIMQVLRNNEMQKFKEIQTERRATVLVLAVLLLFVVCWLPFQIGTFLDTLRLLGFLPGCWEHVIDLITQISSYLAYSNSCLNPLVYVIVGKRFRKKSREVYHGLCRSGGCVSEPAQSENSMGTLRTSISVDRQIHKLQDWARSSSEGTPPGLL", "experiment": "GPI binding B2", "settings": "i.a. = inactive, read-out: GPI Binding - pIC50 B2 (converted)"}},
  "note": "Square brackets hold non-standard residues; d marks the D form. Ends that are not written are not given here. Peptide text beside a SMILES is read from it. Oic = O=C(O)[C@@H]1C[C@@H]2CCCC[C@@H]2N1; dIgl = N[C@@H](C(=O)O)C1Cc2ccccc2C1; Gly(cPent) = N[C@H](C(=O)O)C1CCCC1; Igl = N[C@H](C(=O)O)C1Cc2ccccc2C1; Hyp = O=C(O)[C@@H]1C[C@@H](O)CN1; dTic = O=C(O)[C@H]1Cc2ccccc2CN1",
  "data": [
    {"compound": "CC(C)C[C@H](NC(=O)[C@@H]1CCCN1C(=O)[C@H](CO)NC(=O)[C@H](Cc1ccccc1)NC(=O)CNC(=O)[C@@H]1CCCN1C(=O)[C@@H]1CCCN1C(=O)[C@H](CCCN=C(N)N)NC(=O)[C@@H](N)CCCCN)C(=O)O", "note": "[CP-0298, desArg9 Lys0 Leu8 BX, reference compound]", "values": [
      {"measurement": "BK1 ED50", "setting": "[1]; infusion, dose of antagonist to inhibit hypotensive response to desArg9BK by 50%", "result": "0.546 ± .16 µg/kg/min"},
      {"measurement": "Half-Life", "setting": "[2]", "result": 0.020, "unit": "h"},
      {"measurement": "Half-Life", "setting": "[3]", "result": 0.085, "unit": "h"}
    ]},
    {"compound": "[Leu^8, des-Arg^9 ]-bradykinin", "values": [
      {"measurement": "effect on angiogenic response elicited by bradykinin", "setting": "[4]", "result": "inhibit the angiogenic response elicited by bradykinin"},
      {"measurement": "effect on type I diabetic hyperglycemia", "setting": "[5]", "result": "cause a reduction in type I diabetic hyperglycemia"}
    ]},
    {"compound": "N=C(N)NCCC[C@@H](N)C(=O)N[C@@H](CCCNC(=N)N)C(=O)N1CCC[C@H]1C(=O)N1C[C@H](O)C[C@H]1C(=O)NCC(=O)N[C@H](C(=O)N[C@@H](CO)C(=O)N1Cc2ccccc2C[C@@H]1C(=O)N[C@H](C(=O)O)C1CCCC1)C1CCCC1", "note": "[B9066, DArg-Arg-Pro-Hyp-Gly-Cpg-Ser-DTic-Cpg] (H-[dR]RP[Hyp]G[Gly(cPent)]S[dTic][Gly(cPent)]-OH)", "values": [
      {"measurement": "IC50", "setting": "B1 receptor", "result": 0.501, "unit": "nM"},
      {"measurement": "IC50", "setting": "B2 receptor [6]", "result": 1260, "unit": "nM"},
      {"measurement": "IC50", "setting": "B2 receptor [7]", "result": 2510, "unit": "nM"},
      {"measurement": "Half-Life", "setting": "[2]", "result": "> 6", "unit": "h"},
      {"measurement": "Half-Life", "setting": "[3]", "result": "> 6", "unit": "h"}
    ]},
    {"compound": "RPPGFSPFR [Bradykinin, Arg^1 -Pro^2 -Pro^3 -Gly^4 -Phe^5 -Ser^6 -Pro^7 -Phe^8 -Arg^9, reference compound]", "values": [
      {"measurement": "Half-Life", "setting": "[2]; Rat kidney Brush Border, 37° C.", "result": 0.13, "unit": "h"},
      {"measurement": "Half-Life", "setting": "[3]; Rat Lung Membranes, 37° C.", "result": 0.13, "unit": "h"}
    ]},
    {"compound": "N=C(N)NCCC[C@@H](N)C(=O)N[C@@H](CCCNC(=N)N)C(=O)N1CCC[C@H]1C(=O)N1C[C@H](O)C[C@H]1C(=O)NCC(=O)N[C@H](C(=O)N[C@@H](CO)C(=O)N[C@@H](C(=O)N1[C@H](C(=O)O)C[C@@H]2CCCC[C@@H]21)C1Cc2ccccc2C1)C1Cc2ccccc2C1", "note": "[B9812, DArg-Arg-Pro-Hyp-Gly-Igl-Ser-DIgl-Oic] (H-[dR]RP[Hyp]G[Igl]S[dIgl][Oic]-OH)", "values": [
      {"measurement": "BK1 ED50", "setting": "[1]; ED50 expressed in pmol", "result": 10.7, "unit": "pmol"},
      {"measurement": "Duration of Action (following 20 min of highest dose)", "setting": "[1]; return of agonist response after end of infusion", "result": "B1 still 100% blocked at 4.6 h"},
      {"measurement": "Selectivity (BK, desArg9BK, ACh, NE, Sp, AII)", "setting": "[1]; which agonist responses are blocked at the stated infusion dose", "result": "B1 only at 1.0"},
      {"measurement": "Half-Life", "setting": "[2]", "result": "> 6", "unit": "h"},
      {"measurement": "Half-Life", "setting": "[3]", "result": "> 6", "unit": "h"}
    ]}
  ]
}
